Source: patent publication US20160263108A1, “NRF2 INHIBITORS AND COMPOSITIONS FOR TREATING MYCOBACTERIAL INFECTIONS” (THE HAMNER INSTITUTES, priority 2013, published 2016)
Structures can show the parent of a compound that is named as a salt. Where two headings read alike, the source gives them in different places.

Key:
Nrf2-ARE activity = format: cell-based
[1] = system: Nrf2-ARE activity in HepG2 cells; format: cell-based, human; conditions: for ARE-luciferase activity with Nrf2 activator: HepG2 cells treated with both drug and iAs3+ (FIG. 2A, FIG. 3); for inhibitory effect on ARE-luciferase activity: HepG2 cells, basal conditions (FIG. 2A, FIG. 3)
[2] = system: Nrf2-ARE-dependent gene expression (HO1, GCLM, SRX); conditions: THP-1 cells, concentration-dependent
[3] = system: Nrf2-ARE activity in HaCaT cells; format: cell-based, human
[4] = system: Nrf2-ARE-dependent gene expression (Ho1); experiment: RT-qPCR of ARE-dependent gene in HepG2 cells; conditions: concentration-dependent, basal (FIG. 2B)
[5] = system: Nrf2-ARE activity in 3T3-L1 preadipocytes; format: cell-based, mouse
[6] = system: Nrf2-ARE-dependent gene expression (Gclc, Nqo1, Ho1); experiment: RT-qPCR of ARE-dependent genes in 3T3-L1 preadipocytes; conditions: 10 mM
[7] = iAs3+-treated or tBHQ-treated conditions

Compound: NNC(=O)Cc1ccccc1 [Phenylacetic hydrazide]
- inhibitory effect on ARE-luciferase activity (Nrf2-ARE activity; basal conditions): concentration-dependent inhibitory effect
- inhibitory effect on ARE-luciferase activity (Nrf2-ARE activity; [7]): concentration-dependent inhibitory effect

Compound: C[C@@H]1CN(c2c(F)c(N)c3c(=O)c(C(=O)O)cn(C4CC4)c3c2F)C[C@H](C)N1 [Sparfloxacin]
- inhibitory effect on ARE-luciferase activity (Nrf2-ARE activity; basal conditions): concentration-dependent inhibitory effect

Compound: CC[C@@H](CO)NCCN[C@@H](CC)CO [Ethambutol dihydrochloride]
- inhibitory effect on ARE-luciferase activity (Nrf2-ARE activity; basal conditions): concentration-dependent inhibitory effect

Compound: NC(=O)c1cnccn1 [Pyrazinecarboxamide]
- inhibitory effect on ARE-luciferase activity (Nrf2-ARE activity; basal conditions): concentration-dependent inhibitory effect
- inhibitory effect on ARE-luciferase activity (Nrf2-ARE activity; [7]): concentration-dependent inhibitory effect

Compound: CCc1cc(C(N)=S)ccn1 [Ethionamide]
- ARE-luciferase activity with Nrf2 activator [1]: substantial ARE-luciferase activity
- inhibitory effect on ARE-luciferase activity [1]: concentration-dependent inhibitory effect
- gene expression (mRNA) of Heme oxygenase (HO1) ([2]; basal (FIG. 4A)): suppresses
- gene expression (mRNA) of GCLM ([2]; basal (FIG. 4B)): suppresses
- gene expression (mRNA) of sulfiredoxin (SRX) ([2]; basal (FIG. 4C)): suppresses

Compound: Nc1cnccn1 [Aminopyrazine]
- inhibitory effect on ARE-luciferase activity (Nrf2-ARE activity; basal conditions): concentration-dependent inhibitory effect
- inhibitory effect on ARE-luciferase activity (Nrf2-ARE activity; [7]): concentration-dependent inhibitory effect

Compound: Cc1ccc(C(=O)NN)cc1 [p-Toluic hydrazide]
- inhibitory effect on ARE-luciferase activity (Nrf2-ARE activity; basal conditions): concentration-dependent inhibitory effect
- inhibitory effect on ARE-luciferase activity (Nrf2-ARE activity; [7]): concentration-dependent inhibitory effect

Compound: NNC(=O)c1ccco1 [2-Furoic hydrazide]
- inhibitory effect on ARE-luciferase activity (Nrf2-ARE activity; basal conditions): concentration-dependent inhibitory effect
- inhibitory effect on ARE-luciferase activity (Nrf2-ARE activity; [7]): concentration-dependent inhibitory effect

Compound: NNc1ccccc1 [Phenylhydrazine]
- inhibitory effect on ARE-luciferase activity (Nrf2-ARE activity; basal conditions): concentration-dependent inhibitory effect
- inhibitory effect on ARE-luciferase activity (Nrf2-ARE activity; [7]): concentration-dependent inhibitory effect

Compound: NNC(=O)c1ccncc1 [Isoniazid]
- Nrf2-ARE-inhibitory effect (ARE-luciferase) [3]: Nrf2-ARE-inhibitory effect of isoniazid was also observed
- ARE-luciferase activity with Nrf2 activator [1]: substantial ARE-luciferase activity
- inhibitory effect on ARE-luciferase activity [1]: concentration-dependent inhibitory effect
- gene expression of Heme oxygenase (Ho1) [4]: suppresses
- ARE-luciferase activity with Nrf2 activator ([5]; 3T3-L1 cells treated with both drug and iAs3+ (FIG. 1A)): substantial ARE-luciferase activity
- inhibitory effect on ARE-luciferase activity ([5]; 3T3-L1 cells, basal conditions, 1 mM to 50 mM (FIG. 1A)): concentration-dependent inhibitory effect
- gene expression of glutamate-cysteine ligase catalytic subunit (Gclc) ([6]; basal (FIG. 1B)): suppresses
- gene expression of NAD(P)H dehydrogenase [quinone] 1 (Ngo1) ([6]; basal (FIG. 1C)): suppresses
- gene expression of Heme oxygenase (Ho1) ([6]; basal (FIG. 1D)): suppresses
